Test results from patent US12516039B2, “N-linked isoquinoline amides as LRRK2 inhibitors, pharmaceutical compositions, and uses thereof” (Merck Sharp & Dohme LLC, priority 2020, dated 2026).

Each molecule was assayed against T1, GST-tagged truncated human mutant G2019S LRRK2 (Homo sapiens, UniProt Q5S007, G2019S) (assay: LRRK2 G2019S Km ATP LanthaScreen assay). Conditions: 134 μM ATP (Km ATP), LRRKtide substrate, mean of several tests, read-out: LRRK2 pIC50 (converted).
T1 construct: GST-tagged truncated human mutant G2019S LRRK2; purchased Life Technologies Corporation (Carlsbad, CA)
T1 sequence (Q5S007 970-2527 G2019S limits assumed): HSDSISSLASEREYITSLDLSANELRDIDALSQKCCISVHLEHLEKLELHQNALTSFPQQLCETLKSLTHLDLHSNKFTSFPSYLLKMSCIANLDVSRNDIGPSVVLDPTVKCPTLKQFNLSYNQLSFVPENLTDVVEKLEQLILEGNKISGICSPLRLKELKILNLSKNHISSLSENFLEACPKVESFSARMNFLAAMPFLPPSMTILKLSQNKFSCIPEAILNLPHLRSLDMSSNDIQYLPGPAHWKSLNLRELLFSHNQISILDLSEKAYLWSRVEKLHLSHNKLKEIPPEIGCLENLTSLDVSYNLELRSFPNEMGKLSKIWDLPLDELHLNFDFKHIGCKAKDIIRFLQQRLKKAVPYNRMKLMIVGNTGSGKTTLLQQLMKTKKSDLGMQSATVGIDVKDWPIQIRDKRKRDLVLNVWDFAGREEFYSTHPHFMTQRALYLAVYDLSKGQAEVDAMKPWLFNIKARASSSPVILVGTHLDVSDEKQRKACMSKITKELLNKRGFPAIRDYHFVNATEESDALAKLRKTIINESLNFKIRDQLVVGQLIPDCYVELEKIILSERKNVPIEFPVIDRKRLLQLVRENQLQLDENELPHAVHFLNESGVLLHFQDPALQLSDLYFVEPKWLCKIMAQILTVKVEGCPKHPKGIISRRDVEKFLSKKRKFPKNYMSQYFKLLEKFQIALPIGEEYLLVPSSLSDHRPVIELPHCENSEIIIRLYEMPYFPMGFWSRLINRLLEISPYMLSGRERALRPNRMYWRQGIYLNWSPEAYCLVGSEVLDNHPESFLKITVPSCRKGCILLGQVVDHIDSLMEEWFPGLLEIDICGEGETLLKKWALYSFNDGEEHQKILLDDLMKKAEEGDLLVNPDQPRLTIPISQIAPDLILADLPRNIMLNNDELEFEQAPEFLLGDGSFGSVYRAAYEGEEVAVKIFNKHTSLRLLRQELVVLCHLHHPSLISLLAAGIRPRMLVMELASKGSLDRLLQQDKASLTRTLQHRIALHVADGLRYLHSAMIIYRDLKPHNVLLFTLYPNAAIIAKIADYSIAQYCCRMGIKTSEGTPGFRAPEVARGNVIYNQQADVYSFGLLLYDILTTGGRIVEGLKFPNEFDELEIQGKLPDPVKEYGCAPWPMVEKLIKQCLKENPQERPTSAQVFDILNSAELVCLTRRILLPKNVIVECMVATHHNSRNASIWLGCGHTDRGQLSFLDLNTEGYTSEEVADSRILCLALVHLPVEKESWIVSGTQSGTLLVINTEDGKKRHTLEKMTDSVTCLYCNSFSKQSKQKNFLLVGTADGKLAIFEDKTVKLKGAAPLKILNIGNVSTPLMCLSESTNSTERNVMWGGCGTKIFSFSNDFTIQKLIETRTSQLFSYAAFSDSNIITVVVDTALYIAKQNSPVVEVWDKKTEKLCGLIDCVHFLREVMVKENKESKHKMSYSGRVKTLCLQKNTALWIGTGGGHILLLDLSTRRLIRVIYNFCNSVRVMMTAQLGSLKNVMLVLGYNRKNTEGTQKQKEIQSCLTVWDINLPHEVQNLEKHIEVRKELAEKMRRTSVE
Type: biochemical
Method: Unless otherwise noted, all reactions are magnetically stirred. Unless otherwise noted, when diethyl ether is used in the experiments described below, it is Fisher ACS certified material and is stabilized with BHT. Unless otherwise noted, “concentrated” and/or “solvent removed under reduced pressure” means evaporating the solvent from a solution or mixture using a rotary evaporator or vacuum pump. Unless otherwise noted, flash chromatography is carried out on a Teledyne Isco (Lincoln, NE), Analogix (Burlington, WI), or Biotage (Stockholm, SWE) automated chromatography system using a commercially available cartridge as the column. Columns may be purchased from Teledyne Isco, Analogix, Biotage, Varian (Palo Alto, CA), or Supelco (Bellefonte, PA) and are usually filled with silica gel as the stationary phase. Reverse phase prep-HPLC conditions, where used, can be found at the end of each experimental section. Aqueous solutions were concentrated on a Genevac (Ipswich, ENG) or by freeze-drying/lyophilization. Unless otherwise noted, all LRRK2 pIC50 data presented in tables refers to the LRRK2 G2019S Km ATP LanthaScreen™ assay (Life Technologies Corp., Carlsbad, CA) that is described in the Biological Assay section.
Biological Assay: LRRK2 Km ATP LanthaScreen™ Assay
The LRRK2 kinase activity reported herein as IC50 values was determined with LanthaScreen™ technology from Life Technologies Corporation (Carlsbad, CA) using GST-tagged truncated human mutant G2019S LRRK2 in the presence of the fluorescein-labeled peptide substrate LRRKtide, also from Life Technologies. The data presented for the Km ATP LanthaScreen™ Assay represents mean IC50 values based on several test results and may have reasonable deviations depending on the specific conditions and reagents used. Assays were performed in the presence of 134 μM ATP (Km ATP). Upon completion, the assay was stopped and phosphorylated substrate detected with a terbium (Tb)-labeled anti-pERM antibody (cat. no. PV4898). The compound dose response was prepared by diluting a 10 mM stock of compound to a maximum concentration of 9.99 μM in 100% dimethylsulfoxide followed by custom fold serial dilution in dimethylsulfoxide nine times. Twenty nanoliters of each dilution was spotted via a Labcyte Echo onto a 384-well black-sided plate (Corning 3575) followed by 15 μl of a 1.25 nM enzyme solution in 1× assay buffer (50 mM Tris pH 8.5, 10 mM MgCl2, 0.01% Brij-35, 1 mM EGTA, 2 mM dithiothreitol, 0.05 mM sodium orthovanadate). Following a 15-minute incubation at room temperature, the kinase reaction was started with the addition of 5 μl of 400 nM fluorescein-labeled LRRKtide peptide substrate and 134 μM ATP solution in 1× assay buffer. The reaction was allowed to progress at ambient temperature for 90 minutes. The reaction was then stopped by the addition of 20 μl of TR-FRET Dilution Buffer (Life Technologies, Carlsbad, CA) containing 2 nM Tb-labeled anti-phospho LRRKtide antibody and 10 mM EDTA (Life Technologies, Carlsbad, CA). After an incubation of 1 hour at room temperature, the plate was read on an EnVision multimode plate reader (Perkin Elmer, Waltham, MA) with an excitation wavelength of 337 nm (Laser) and a reading emission at both 520 and 495 nm. Compound IC50s were interpolated from nonlinear regression best fits of the log of the final compound concentration, plotted as a function of the 520/495-nm emission ratio using Activity base. Abase uses a 4 parameter (4P) logistic fit based on the Levenberg-Marquardt algorithm.
Molecule CC1(N2CCN(c3cc4cc(NC(=O)C5CC56CCC(F)(F)CC6)ncc4cc3Cl)CC2)COCC1O (single isomer, unassigned) [Ex-1.20, (1R or 1S)-N-(7-chloro-6-(4-((3R,4R or 3S,4S)-4-hydroxy-3-methyltetrahydrofuran-3-yl)piperazin-1-yl)isoquinolin-3-yl)-6,6-difluorospiro[2.5]octane-1-carboxamide] has an IC50 of 63.1 nM. For CC1(C)CC(C(=O)Nc2cc3cc(N4CCN(C5(C)COCC5O)CC4)c(Cl)cc3cn2)CO1 (single isomer, unassigned) [Ex-1.21, (R or S)-N-(7-chloro-6-(4-((3R,4R or 3S,4S)-4-hydroxy-3-methyltetrahydrofuran-3-yl)piperazin-1-yl)isoquinolin-3-yl)-5,5-dimethyltetrahydrofuran-3-carboxamide], the IC50 was 1.74 nM. CC1(C)CC(C(=O)Nc2cc3cc(N4CCN(C5(C)COCC5O)CC4)c(Cl)cc3cn2)CO1 (single isomer, unassigned) [Ex-1.22, (R or S)-N-(7-chloro-6-(4-((3R,4R or 3S,4S)-4-hydroxy-3-methyltetrahydrofuran-3-yl)piperazin-1-yl)isoquinolin-3-yl)-5,5-dimethyltetrahydrofuran-3-carboxamide] was tested, and the IC50 was 1.17 nM. With CC1(C)OCCC1C(=O)Nc1cc2cc(N3CCN(C4(C)COCC4O)CC3)c(Cl)cc2cn1 (single isomer, unassigned) [Ex-1.23, (R or S)-N-(7-chloro-6-(1-((3R,4R or 3S,4S)-4-hydroxy-3-methyltetrahydrofuran-3-yl)piperazin-4-yl)isoquinolin-3-yl)-2,2-dimethyltetrahydrofuran-3-carboxamide] the IC50 was 7.41 nM. CC1(C)OCCC1C(=O)Nc1cc2cc(N3CCN(C4(C)COCC4O)CC3)c(Cl)cc2cn1 (single isomer, unassigned) [Ex-1.24, (R or S)-N-(7-chloro-6-(1-((3R,4R or 3S,4S)-4-hydroxy-3-methyltetrahydrofuran-3-yl)piperazin-4-yl)isoquinolin-3-yl)-2,2-dimethyltetrahydrofuran-3-carboxamide] was tested, and the IC50 was 69.2 nM. For COCC1CCC1C(=O)Nc1cc2cc(N3CCN(C4(C)COCC4O)CC3)c(Cl)cc2cn1 (single isomer, unassigned) [Ex-1.25, (1R,2S or 1R,2R, or 1S,2S, or 1S,2R)-N-(7-chloro-6-(4-((3R,4R)-4-hydroxy-3-methyltetrahydrofuran-3-yl)piperazin-1-yl)isoquinolin-3-yl)-2-(methoxymethyl)cyclobutane-1-carboxamide], the IC50 was 0.158 nM. For COCC1CCC1C(=O)Nc1cc2cc(N3CCN(C4(C)COCC4O)CC3)c(Cl)cc2cn1 (single isomer, unassigned) [Ex-1.26, (1R,2S or 1R,2R, or 1S,2S, or 1S,2R)-N-(7-chloro-6-(4-((3R,4R)-4-hydroxy-3-methyltetrahydrofuran-3-yl)piperazin-1-yl)isoquinolin-3-yl)-2-(methoxymethyl)cyclobutane-1-carboxamide], the IC50 was 1.45 nM. With CC1(N2CCN(c3cc4cc(NC(=O)C5CCC56CCOCC6)ncc4cc3Cl)CC2)COCC1O (single isomer, unassigned) [Ex-1.27, (R or S)-N-(7-chloro-6-(4-((3R,4R or 3S,4S)-4-hydroxy-3-methyltetrahydrofuran-3-yl)piperazin-1-yl)isoquinolin-3-yl)-7-oxaspiro[3.5]nonane-1-carboxamide] the IC50 was 1.29 nM. In the case of CC1(N2CCN(c3cc4cc(NC(=O)C5CCC56CCOCC6)ncc4cc3Cl)CC2)COCC1O (single isomer, unassigned) [Ex-1.28, (R or S)-N-(7-chloro-6-(4-((3R,4R or 3S,4S)-4-hydroxy-3-methyltetrahydrofuran-3-yl)piperazin-1-yl)isoquinolin-3-yl)-7-oxaspiro[3.5]nonane-1-carboxamide], the IC50 was 12 nM. Molecule CC1(N2CCN(c3cc4cc(NC(=O)C5CC56CCOCC6)ncc4cc3Cl)CC2)COCC1O (single isomer, unassigned) [Ex-2.1, (R or S)-N-(7-chloro-6-(4-((3R,4R or 3S,4S)-4-hydroxy-3-methyltetrahydrofuran-3-yl)piperazin-1-yl)isoquinolin-3-yl)-6-oxaspiro[2.5]octane-1-carboxamide] has an IC50 of 0.389 nM. CC1(N2CCN(c3cc4cc(NC(=O)C5CC56CCOCC6)ncc4cc3Cl)CC2)COCC1O (single isomer, unassigned) [Ex-2.2, (R or S)-N-(7-chloro-6-(4-((3R,4R or 3S,4S)-4-hydroxy-3-methyltetrahydrofuran-3-yl)piperazin-1-yl)isoquinolin-3-yl)-6-oxaspiro[2.5]octane-1-carboxamide] gave an IC50 of 3.63 nM. C[C@H]1CN(c2cc3cc(NC(=O)C4CC45CCOCC5)ncc3cc2Cl)CCN1C1COCC1O (single isomer, unassigned) [Ex-2.3, (R or S)-N-{7-chloro-6-[(3S or 3R)-4-(3R,4R or 3S,4S)-4-hydroxyoxolan-3-yl)-3-methylpiperazin-1-yl]isoquinolin-3-yl}-6-oxaspiro[2.5]octane-1-carboxamide] showed an IC50 of 17.4 nM. For C[C@H]1CN(c2cc3cc(NC(=O)C4CC45CCOCC5)ncc3cc2Cl)CCN1C1COCC1O (single isomer, unassigned) [Ex-2.4, (R or S)-N-{7-chloro-6-[(3S or 3R)-4-(3R,4R or 3S,4S)-4-hydroxyoxolan-3-yl)-3-methylpiperazin-1-yl]isoquinolin-3-yl}-6-oxaspiro[2.5]octane-1-carboxamide], the IC50 was 0.38 nM. Molecule O=C(Nc1cc2cc(N3CCN(C4COCC4O)CC3)c(Cl)cc2cn1)C1CC12CCOCC2 (single isomer, unassigned) [Ex-2.5, (R or S)-N-(7-chloro-6-(4-((3R,4R or 3S,4S)-4-hydroxytetrahydrofuran-3-yl)piperazin-1-yl)isoquinolin-3-yl)-6-oxaspiro[2.5]octane-1-carboxamide] has an IC50 of 41.7 nM. Work on O=C(Nc1cc2cc(N3CCN(C4COCC4O)CC3)c(Cl)cc2cn1)C1CC12CCOCC2 (single isomer, unassigned) [Ex-2.6, (R or S)-N-(7-chloro-6-(4-((3R,4R or 3S,4S)-4-hydroxytetrahydrofuran-3-yl)piperazin-1-yl)isoquinolin-3-yl)-6-oxaspiro[2.5]octane-1-carboxamide] yielded an IC50 of 3.09 nM. With O=C(Nc1cc2cc(N3CCN(C4COCC4O)CC3)c(Cl)cc2cn1)C1CC12CCOCC2 (single isomer, unassigned) [Ex-2.7, (R or S)-N-(7-chloro-6-(4-((3R,4R or 3S,4S)-4-hydroxytetrahydrofuran-3-yl)piperazin-1-yl)isoquinolin-3-yl)-6-oxaspiro[2.5]octane-1-carboxamide] the IC50 was 380 nM. O=C(Nc1cc2cc(N3CCN(C4COCC4O)CC3)c(Cl)cc2cn1)C1CC12CCOCC2 (single isomer, unassigned) [Ex-2.8, (R or S)-N-(7-chloro-6-(4-((3R,4R or 3S,4S)-4-hydroxytetrahydrofuran-3-yl)piperazin-1-yl)isoquinolin-3-yl)-6-oxaspiro[2.5]octane-1-carboxamide] was tested, and the IC50 was 24 nM. For CC1(N2CCN(c3cc4cc(NC(=O)C5CC56CCOC6)ncc4cc3Cl)CC2)COCC1O (single isomer, unassigned) [Ex-2.9, (1R,3R or 1S,3S)-N-(7-chloro-6-(4-((3R,4R or 3S,4S)-4-hydroxy-3-methyltetrahydrofuran-3-yl)piperazin-1-yl)isoquinolin-3-yl)-5-oxaspiro[2.4]heptane-1-carboxamide], the IC50 was 0.195 nM. CC1(N2CCN(c3cc4cc(NC(=O)C5CC56CCOC6)ncc4cc3Cl)CC2)COCC1O (single isomer, unassigned) [Ex-2.10, (1R,3R or 1S,3S)-N-(7-chloro-6-(4-((3R,4R or 3S,4S)-4-hydroxy-3-methyltetrahydrofuran-3-yl)piperazin-1-yl)isoquinolin-3-yl)-5-oxaspiro[2.4]heptane-1-carboxamide] was tested, and the IC50 was 0.589 nM.
